Experimental data taken from patent publication US10426773B2, “Systems pharmacology for treating ocular disorders” (Case Western Reserve Univeristy, priority 2011, dated 2019).
“Also recorded” adds a separate entry of the source. Where a name gives a salt, the structure may show the parent alone.

Assays:
Abca4−/−Rdh8−/− mice [1] = assay: Bright light-induced retinal degeneration in Abca4−/−Rdh8−/− mice, retinal histology and immunohistochemistry; format: in vivo, mouse; settings: pretreatment before light 10,000 lux 30 min; 7-10 days after light exposure
Experimental: Retinal histology and immunohistochemistry (IHC) was performed as previously described. Briefly, eye cups free of cornea, lens and vitreous body were fixed in 2% glutaraldehyde/4% paraformaldehyde and processed for Epon embedding. Sections 1 am thick were cut and stained with toluidine blue for histological examination under a light microscope. IHC analysis was performed on 12 am thick cryosections prepared from 4% paraformaldehyde-fixed eye cups. Collected cryosections were subjected to examination for rhodopsin, PNA and DAPI expression.
Retinal immunohistochemistry (IHC) was carried out as previously described. Briefly, eyes were enucleated and eye cups were made to eliminate cornea, lens and vitreous body and fixed in 4% paraformaldehyde and processed for cryosectioning. 12 am thick cryosections were collected cryosections and subjected to examination for rhodopsin, peanut agglutinin lectin (PNA) and DAPI expression.
Retinal immunohistochemistry (IHC) was performed as previously described. Briefly, eyes were enucleated and, after removal of the cornea, lens and vitreous body, eye cups were fixed in 4% paraformaldehyde and processed for cryosectioning. Twelve μm thick cryosections were cut, collected and examined for rhodopsin expression, peanut agglutinin lectin (PNA) for cone sheath and nuclear DAPI staining. […]

[2] = test system: retinal transcriptome of Abca4−/−Rdh8−/− mice; assay: RNA-seq retinal transcriptome of pretreated, light-exposed Abca4−/−Rdh8−/− mice (differential expression, Pearson, GSEA); format: in vivo, mouse; settings: for NES, CHEMOKINE SIGNALING gene set / NES, CYTOKINE- RECEPTOR INTERACTIO gene set / NES, P53 gene set / NES, TOLL-LIKE SIGNALING gene set / NES, APOPTOSIS gene set: GSEA, vehicle-treated light-exposed retinas against drug-treated; for NES, APOPTOSIS gene set: P in brackets not reported here; for number of light-up-regulated gene sets significantly down-regulated (GSEA): of 44 gene sets up-regulated by light, mono doses BRM 1, MTP 10, TAM 2.5, DOX 10 mg/kg bw
[3] = biological target: T1, Dopamine D4 receptor (D4R) (Homo sapiens, UniProt P21917); assay: BRET assay for G protein activation in live cells, D4R-Go; format: cell-based; settings: for agonistic activity on D4R (BRET signal): HEK293T/17 cells, BRM 25 μM, MTP 100 μM, DOX 50 μM, TAM 100 μM
T1 construct: host or cells: HEK293T/17
T1 sequence (P21917 1-419): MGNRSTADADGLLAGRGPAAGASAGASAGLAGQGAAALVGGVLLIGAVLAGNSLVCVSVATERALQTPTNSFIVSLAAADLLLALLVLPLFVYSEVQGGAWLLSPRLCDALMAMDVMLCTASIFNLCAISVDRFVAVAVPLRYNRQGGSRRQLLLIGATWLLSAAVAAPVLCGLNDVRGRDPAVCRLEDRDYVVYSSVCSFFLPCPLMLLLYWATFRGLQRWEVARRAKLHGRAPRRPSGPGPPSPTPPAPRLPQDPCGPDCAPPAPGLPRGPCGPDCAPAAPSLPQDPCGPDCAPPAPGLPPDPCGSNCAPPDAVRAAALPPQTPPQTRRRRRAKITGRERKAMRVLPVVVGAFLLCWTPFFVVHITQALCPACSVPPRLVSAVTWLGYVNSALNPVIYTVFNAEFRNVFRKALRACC
From the text: FIGS. 35(A-C) illustrate characterizing the activity of BRM, MTP, DOX, and TAM on dopamine and adrenaline receptors (A) Schematic representation of the BRET assay used to evaluate actions of drugs on selected GPCRs. […] The free Venus-Gβγ then interacts with the Gβγ-effector mimetic masGRK3ct-Nluc to produce the BRET signal. GDP, guanosine diphosphate; GRK, G protein-coupled receptor kinase; Nluc, nanoluciferase. (B) Left: Representative BRET signal traces recorded upon activation of D4R with indicated drugs in cells expressing Gαo and Venus-Gβγ, illustrating the agonism assay. Right: Representative traces of D2R responses to 1 μM dopamine in the absence (control) or presence of indicated drugs, illustrating antagonism assay. Note that, in the antagonism assay shown, the black trace overlaps with the red trace and therefore is not visible. (C) Top: Quantification of agonistic activity of ligands on D2R, D4R, D1R, and ADRA1A. D2R-GO, D4R-GO, D1R-Gs, and ADRA1A-Gq signaling were reconstituted in HEK293T/17 cells by transient transfection separately. Maximum amplitudes induced by dopamine (DA; 100 μM), noradrenaline (NA; 100 μM), BRM (25 μM), MTP (100 μM), DOX (50 μM), and TAM (100 μM) were plotted as bar graphs. […] The activity is plotted as percent inhibition. Data are means±SD. Results are representative of two independent experiments each performed with 12 replicates.
Dopamine D1, dopamine D4, and α1A-adrenergic receptors were purchased from cDNA Resource Center (Bloomsburg University, Bloomsburg, Pa.). Plasmid encoding the Flag-tagged, long isoform of the D2 dopamine receptor was a gift from A. Kovoor (University of Rhode Island). pCMV5 plasmids encoding GαoA were gifts from H. Itoh (Nara Institute of Science and Technology, Japan). Plasmids encoding Venus 156-239-Gβ1 and Venus 1-155-Gγ2 were gifts from N. Lambert (Georgia Regents University). Plasmids encoding RGS9-2, Gβ5S, R7BP, and masGRK3ct-Nluc were previously described.
BRET experiments were performed as previously reported with slight modifications. […] BRET measurements were performed using a microplate reader (POLARstar Omega, BMG Labtech) equipped with two emission photomultiplier tubes. […] The BRET signal is determined by calculating the ratio of the light emitted by Gβ1γ2-Venus (535 nm) over the light emitted by masGRK3ct-Nluc (475 nm). The average baseline value recorded before agonist stimulation was subtracted from BRET signal values, and the resulting difference (ABRET ratio) was obtained.
We used a real-time kinetic assay in which G protein activation by GPCRs is quantified by monitoring changes in the bioluminescence resonance energy transfer (BRET) signal between Venus-tagged Gβγ and its luciferase-tagged reporter in living cells (FIG. 35A). […]

Abca4−/−Rdh8−/− mice [4] = assay: Bright light-induced retinal degeneration in Abca4−/−Rdh8−/− mice, OCT imaging of retinal structure; format: in vivo, mouse; settings: for Percent of mice with: subeffective doses BRM 0.1, MTP 1, TAM 0.05, DOX 1 mg/kg bw, OCT 7 days; for retinal / photoreceptor morphology by OCT imaging: pretreatment before light 10,000 lux 30 min, OCT 7 days after light exposure; for retinal protection at full individual dose: BRM 1, MTP 10, TAM 2.5 mg/kg bw individually; for light-exposed mice with complete retinal protection: lower doses BRM 0.1, MTP 1, TAM 0.05 mg/kg bw, alone or all three combined
[5] = Table 14 (complete protection, ONL ≥50 μm)
[6] = Table 14 (no protection, ONL ≤20 μm)

Compound | retinal histology / immunohistochemistry (rhodopsin, PNA, DAPI; ONL) (Abca4−/−Rdh8−/− mice [1]) | NES, CHEMOKINE SIGNALING gene set [2] | NES, CYTOKINE- RECEPTOR INTERACTIO gene set [2] | NES, P53 gene set [2] | NES, TOLL-LIKE SIGNALING gene set [2] | NES, APOPTOSIS gene set [2] | number of light-up-regulated gene sets significantly down-regulated (GSEA) [2] | agonistic activity on D4R (BRET signal) [3] | Percent of mice with (Abca4−/−Rdh8−/− mice [4]; [5]) | Percent of mice with (Abca4−/−Rdh8−/− mice [4]; [6]) | retinal / photoreceptor morphology by OCT imaging (Abca4−/−Rdh8−/− mice [4]; listed as DOX) | half maximal effective (protective) dose (Abca4−/−Rdh8−/− mice [4]; protection from bright light-induced degeneration, dose-response, FIG. 25A/B) | preservation of retinal gene expression pattern (in words) ([2]; retinas 1 day after light exposure) | antagonistic activity on D4R (inhibition of BRET signal) ([3]; preincubation with ligand, then 1 μM dopamine) | retinal protection at full individual dose (Abca4−/−Rdh8−/− mice [4]) | light-exposed mice with complete retinal protection (Abca4−/−Rdh8−/− mice [4]) | retinal / photoreceptor morphology by OCT imaging (Abca4−/−Rdh8−/− mice [4]) | retinal / photoreceptor morphology by OCT imaging (Abca4−/−Rdh8−/− mice [4]; listed as TAM)
COc1cc2nc(N3CCN(C(=O)C4COc5ccccc5O4)CC3)nc(N)c2cc1OC.CS(=O)(=O)O (stereo not shown) [Doxazosin] | substantially preserved photoreceptor morphology | 1.41 | 2.42 | 2.18 | 1.99 | 1.75 | 28 gene sets | partial agonistic effect | 0% of mice | 100% of mice | substantial protection on photoreceptor morphology; also recorded: dose-dependent fashion | 0.4 mg/kg | – | – | – | – | – | –
COCCc1ccc(OCC(O)CNC(C)C)cc1 (stereo not shown) [MTP, metoprolol tartrate] | preservation of the ONL and photoreceptor cells | 1.44 | 2.30 | 2.04 | 2.05 | 1.61 | 36 gene sets | no agonistic or antagonistic effects | 25% of mice | 41.7% of mice | – | – | conferred the most protection | no agonistic or antagonistic effects | Complete retinal protection | 25% | dose-dependent retinal protection | –
CCOc1ccccc1OCCN[C@H](C)Cc1ccc(OC)c(S(N)(=O)=O)c1.Cl [Tamsulosin] | substantially preserved photoreceptor morphology | 1.39 | 2.29 | 1.98 | 1.83 | 1.60 | 32 gene sets | partial agonistic effect | 16.7% of mice | 58.3% of mice | – | – | – | – | Complete retinal protection | 17% | – | substantial protection on photoreceptor morphology; also recorded: dose-dependent retinal protection
